Results taken from article PMC8119466, “A screen of FDA-approved drugs identifies inhibitors of protein tyrosine phosphatase 4A3 (PTP4A3 or PRL-3)” (Scientific Reports, 2021).
Where a name gives a salt, the structure may show the parent alone. Read-outs that look alike come from different tables or passages of the source.

Assays:
Format in all cases: biochemical
recombinant PRL-3 = target: T1, recombinant PRL-3 (Homo sapiens, UniProt O75365); experiment: In vitro phosphatase assay (DiFMUP hydrolysis), PRL-3; also: test concentration or dose not given here
T1 construct: 6xHis (N, cleaved yes); made in house; host or cells: E. coli One Shot BL21 Star

recombinant PRL-1 = target: T2, recombinant PRL-1 (Homo sapiens, UniProt Q93096); experiment: In vitro phosphatase assay (DiFMUP hydrolysis), PRL-1; also: test concentration or dose not given here
T2 construct: 6xHis (N, cleaved yes); made in house; host or cells: E. coli One Shot BL21 Star
T2 sequence (Q93096 1-173): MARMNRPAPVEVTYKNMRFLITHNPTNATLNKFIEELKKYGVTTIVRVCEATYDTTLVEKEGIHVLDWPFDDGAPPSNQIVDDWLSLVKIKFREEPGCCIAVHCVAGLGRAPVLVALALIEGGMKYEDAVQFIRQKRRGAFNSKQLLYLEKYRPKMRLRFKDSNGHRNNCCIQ

recombinant PRL-2 = target: T3, recombinant PRL-2 (Homo sapiens, UniProt Q12974); experiment: In vitro phosphatase assay (DiFMUP hydrolysis), PRL-2;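 also: PRL-2 activity read as DiFMUP hydrolysis after 20 min at room temperature with drug, enzyme first pre-reduced at 4 °C for 20 min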
T3 construct: 6xHis (N, cleaved yes); made in house; host or cells: E. coli One Shot BL21 Star
T3 sequence (Q12974 1-167): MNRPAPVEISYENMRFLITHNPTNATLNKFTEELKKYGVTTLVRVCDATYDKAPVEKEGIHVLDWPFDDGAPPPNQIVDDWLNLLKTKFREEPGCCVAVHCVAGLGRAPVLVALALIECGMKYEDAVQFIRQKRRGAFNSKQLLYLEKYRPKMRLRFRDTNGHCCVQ

[1] = FDA-approved drug screen, activity compared to DMSO

T1 sequence (O75365 whole entry): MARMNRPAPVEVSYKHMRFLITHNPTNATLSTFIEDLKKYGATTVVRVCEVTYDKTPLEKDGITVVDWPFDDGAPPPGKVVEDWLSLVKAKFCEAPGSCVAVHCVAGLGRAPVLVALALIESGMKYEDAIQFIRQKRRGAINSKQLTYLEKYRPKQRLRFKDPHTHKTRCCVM

Row | Compound | % Phosphatase Activity (compared to DMSO) PRL-3 (recombinant PRL-3; [1]) | % Phosphatase Activity (compared to DMSO) PRL-1 (recombinant PRL-1; [1]) | % Phosphatase Activity (compared to DMSO) PRL-2 (recombinant PRL-2; [1]) | % Phosphatase Activity (compared to DMSO) PRL-3 (recombinant PRL-3) | % Phosphatase Activity (compared to DMSO) PRL-1 (recombinant PRL-1) | % Phosphatase Activity (compared to DMSO) PRL-2 (recombinant PRL-2)
1 | CN[C@@H]1[C@@H](O)[C@@H](O[C@@H]2[C@@H](O)[C@H](O[C@H]3OC(CN)=CC[C@H]3N)[C@@H](N)C[C@H]2N)OC[C@]1(C)O [Sisomicin sulfate] | 107% | 83% | 84% |  |  | 
2 | N[C@@H]1CN(c2c(F)cc3c(=O)c(C(=O)O)cn([C@@H]4C[C@@H]4F)c3c2Cl)CC12CC2.O [Sitafloxacin Hydrate] | 81% | 91% | 90% |  |  | 
3 | N[C@@H](CC(=O)N1CCn2c(nnc2C(F)(F)F)C1)Cc1cc(F)c(F)cc1F [Sitagliptin phosphate monohydrate] | 89% | 117% | 120% |  |  | 
4 | CC(C)(C)C(=O)Oc1ccc(S(=O)(=O)Nc2ccccc2C(=O)NCC(=O)O)cc1 [Sivelestat sodium] | 75% | 89% | 86% |  |  | 
5 | Nc1ccc(C(=O)[O-])c(O)c1.[Na+] [Sodium 4-Aminosalicylate] | 69% | 90% | 119% |  |  | 
6 | Nc1ccc(C(=O)NCC(=O)[O-])cc1.O.[Na+] [Sodium 4-aminohippurate Hydrate] | 84% | 84% | 87% |  |  | 
7 | O=N[O-].[Na+] [Sodium Nitrite] |  |  |  | 75% | 94% | 116%
8 | O=C(O)CCCc1ccccc1 [Sodium Phenylbutyrate] | 82% | 103% | 110% |  |  | 
9 | O=S(=O)(O)Oc1ccc(C(c2ccc(OS(=O)(=O)O)cc2)c2ccccn2)cc1 [Sodium Picosulfate] | 81% | 115% | 110% |  |  | 
10 | O=C1O[C@H]([C@@H](O)CO)C([O-])=C1O.[Na+] [Sodium ascorbate] | 113% | 85% | 71% |  |  | 
11 | CCCC(=O)[O-].[Na+] [Sodium butyrate] | 89% | 97% | 90% |  |  | 
12 | O=C([O-])c1ccccc1O.[Na+] [Sodium salicylate] |  |  |  | 95% | 130% | 103%
13 | CC(C)OC(=O)[C@H](C)N[P@](=O)(OC[C@H]1O[C@@H](n2ccc(=O)[nH]c2=O)[C@](C)(F)[C@@H]1O)Oc1ccccc1 [Sofosbuvir (PSI-7977, GS-7977)] | 89% | 87% | 96% |  |  | 
14 | O=C(O[C@H]1CN2CCC1CC2)N1CCc2ccccc2[C@@H]1c1ccccc1 [Solifenacin succinate] | 114% | 88% | 99% |  |  | 
15 | CNC(=O)c1cc(Oc2ccc(NC(=O)Nc3ccc(Cl)c(C(F)(F)F)c3)cc2)ccn1 [Sorafenib Tosylate] | 73% | 85% | 93% |  |  | 
16 | CNC(=O)c1cc(Oc2ccc(NC(=O)Nc3ccc(Cl)c(C(F)(F)F)c3)cc2)ccn1 [Sorafenib] | 95% | 91% | 80% |  |  | 
17 | OC[C@@H](O)[C@@H](O)[C@H](O)[C@@H](O)CO [Sorbitol] | 80% | 105% | 96% |  |  | 

Row | Compound | % Phosphatase Activity (compared to DMSO) PRL-3 (recombinant PRL-3; [1]) | % Phosphatase Activity (compared to DMSO) PRL-1 (recombinant PRL-1; [1]) | % Phosphatase Activity (compared to DMSO) PRL-2 (recombinant PRL-2; [1]) | % Phosphatase Activity (compared to DMSO) PRL-3 (recombinant PRL-3) | % Phosphatase Activity (compared to DMSO) PRL-1 (recombinant PRL-1) | % Phosphatase Activity (compared to DMSO) PRL-2 (recombinant PRL-2)
18 | CCOc1ccc(Cc2cc([C@@H]3O[C@H](SC)[C@@H](O)[C@H](O)[C@H]3O)ccc2Cl)cc1 [Sotagliflozin (LX4211)] | 85% | 100% | 88% |  |  | 
19 | CC(C)NCC(O)c1ccc(NS(C)(=O)=O)cc1 (stereo not drawn) [Sotalol] | 78% | 98% | 97% |  |  | 
20 | CN1CCN(c2nc(C3=C(c4c[nH]c5ccccc45)C(=O)NC3=O)c3ccccc3n2)CC1 [Sotrastaurin] | 85% | 83% | 89% |  |  | 
21 | C[C@@H]1CN(c2c(F)c(N)c3c(=O)c(C(=O)O)cn(C4CC4)c3c2F)C[C@H](C)N1 [Sparfloxacin] | 121% | 87% | 98% |  |  | 
22 | CN[C@@H]1[C@H](O)[C@H](NC)[C@H]2O[C@@]3(O)C(=O)C[C@@H](C)O[C@H]3O[C@@H]2[C@H]1O.Cl.Cl [Spectinomycin HCl] | 77% | 109% | 110% |  |  | 
23 | CC(=O)S[C@@H]1CC2=CC(=O)CC[C@]2(C)[C@H]2CC[C@@]3(C)[C@@H](CC[C@@]34CCC(=O)O4)[C@H]12 [Spironolactone] | 68% | 84% | 87% |  |  | 
24 | C[C@]12Cc3c[nH]nc3C[C@@H]1CC[C@@H]1[C@@H]2CC[C@@]2(C)[C@H]1CC[C@]2(C)O [Stanozolol] |  |  |  | 93% | 89% | 84%
25 | Cc1cn([C@H]2C=C[C@@H](CO)O2)c(=O)[nH]c1=O [Stavudine (d4T)] | 88% | 104% | 90% |  |  | 
26 | [H]/N=C(/N)N[C@H]1[C@H](O)[C@@H](O)[C@H](O[C@@H]2O[C@@H](C)[C@](O)(C=O)[C@H]2O[C@@H]2O[C@@H](CO)[C@H](O)[C@@H](O)[C@@H]2NC)[C@@H](N/C(N)=N\[H])[C@@H]1O [Streptomycin sulfate] | 85% | 105% | 89% |  |  | 
27 | O=C(O)CCC(=O)Nc1ccc(S(=O)(=O)Nc2nccs2)cc1 [Succinylsulfathiazole] | 85% | 85% | 97% |  |  | 
28 | CC1(C)[C@H](C(=O)O)N2C(=O)C[C@H]2S1(=O)=O [Sulbactam sodium] | 89% | 111% | 112% |  |  | 
29 | CC1(C)[C@H](C(=O)O)N2C(=O)C[C@H]2S1(=O)=O [Sulbactam] | 81% | 95% | 91% |  |  | 
30 | Nc1ccc(S(=O)(=O)NC(=O)c2ccccc2)cc1 [Sulfabenzamide] | 83% | 93% | 121% |  |  | 
31 | CC(=O)NS(=O)(=O)c1ccc(N)cc1 [Sulfacetamide Sodium] | 74% | 91% | 109% |  |  | 
32 | COc1ncnc(NS(=O)(=O)c2ccc(N)cc2)c1OC [Sulfadoxine] | 76% | 110% | 106% |  |  | 
33 | [H]/N=C(/N)NS(=O)(=O)c1ccc(N)cc1 [Sulfaguanidine] | 77% | 97% | 90% |  |  | 
